# In patent US20190231822A1, “METHODS OF REDUCING CHRONIC GRAFT-VERSUS-HOST DISEASE” (Regents of the University of Minnesota, priority 2016, published 2019):
# Test system: cGVHD
# Experiment: cGVHD prevention or reversal by an iNKT agonist
# Assay type: in vivo
# Settings: intravascular administration
smiles,measurement,value
CCCCCCCCCCCCCCCCCCCCCCCCCC(=O)N[C@@H](CO[C@H]1O[C@H](CO)[C@H](O)[C@H](O)[C@H]1O)[C@H](O)[C@H](O)CCCCCCCCCCCCCC [alpha-galactosylceramide],prevention or reversal of cGVHD,able to prevent or reverse cGVHD
